Experimental data: US20100317583A1, “TREATMENT OF MELANOMA WITH ALPHA THYMOSIN PEPTIDES IN COMBINATION WITH AN ANTINEOPLASTIC HEAT SHOCK APOPTOSIS ACTIVATOR (HSAA)” (SciClone Pharmaceuticals, Inc., priority 2007, published 2010)
No end group written: not given here.

Test system: murine B16 melanoma cells
Assay: Anti-tumor efficacy (tumor size, tumor volume, tumor weight) in C57BL/6 mice bearing subcutaneous B16 melanoma
Format: in vivo
Details: for Tumor weights / PI (TW), percent inhibition of tumor weight vs vehicle: Day 17
Method: In this study, the anti-tumor effect of the combined treatment of thymosin alpha-1 (TA-1), Paclitaxel (Pac) and Elesclomol (Ele) was evaluated in C57BL/6 mice bearing B16 melanoma cells. The toxic effects of the dosing regimens were also monitored. A total of 60 mice were implanted subcutaneously with murine B16 cells, followed by treatment with TA-1 or Pac/Ele alone or in combination for 14 consecutive days. TA-1 was given daily via s.c., while Pac and Ele were co-i.v. administered on Day 1, 7 and 13. In total, 6 groups were used: Group 1: vehicle; Group 2: TA-1 6 mg/kg; Group 3: Pac 10 mg/kg+Ele 10 mg/kg; Group 4: Pac 30 mg/kg+Ele 30 mg/kg; Group 5: TA-1 6 mg/kg+Pac 10 mg/kg+Ele 10 mg/kg; and Group 6: TA-1 6 mg/kg+Pac 30 mg/kg+Ele 30 mg/kg. Tumor volume and body weight were measured every three days, and tumor weights were measured on Day 17 at the end of the study.
Murine B16 melanoma cells were thawed from the stock of Cell Culture Center, Institute of Basic Medical Sciences, Peking Union Medical College and Chinese Academy of Medical Sciences (PUMC & CAMS, Beijing, P. R. China). The tumor cells were adapted in C57BL/6 mice before use in the experiment (Refer to Section 4.3.1 for details on cell adaptation).
Using aseptic tissue culture procedures, one vial of B16 melanoma cells was removed from the liquid nitrogen stock, and placed into a 37° C. water bath. Gentle swirling was conducted until the content of the vial was thawed. Once thawed, the cells were immediately centrifuged with a TD5A-WS centrifuge at 1000 rpm, 20-25° C., 5 min. After centrifugation, the cells were suspended in […] normal saline (NS) and subcutaneously injected into 10 mice (0.1 mL/mouse, about 1×10^6 cells). After 7-10 days, when the tumor diameter was approximately 1 cm, the animals were euthanized with CO2 overdose and the tumors excised. The procedure was repeated with 20 mice to generate a sufficient number of B16 melanoma cells with adequate transplantability.
On the day of tumor implantation, approximately 1×10^6 cells in 0.1 mL were subcutaneously injected on the right axillary area of each mouse. The day of tumor implantation was defined as Day 0.
On Day 1, the animals were randomly assigned into different weight-matched groups, and dosing was started using the regimen according to Table 2. Briefly, TA-1 was administered once daily via subcutaneous (s.c.) injection for 14 consecutive days at a site different from that of tumor cell implantation, while Pac and Ele was administered on Days 1, 7, and 13 via an intravenous (i.v.) injection.
From Day 1 to Day 15, mortality and moribundity were checked twice daily, the body weights were recorded once every 3 days, and tumors were measured using a caliper once every 3 days. At the end of the study (Day 17), the animals were euthanized by CO2 asphyxiation, and the tumors were excised and weighed.
Based on the tumor size, the tumor volume (TV) was calculated with the formula: [TV=(Length×Width×Width)/2]. And the percent inhibition (PI) of TV (PITV) was calculated according to the equation below:
PITV(%)=(TV vehicle−TVdrug treated)/TV vehicle×100
The anti-tumor effect of the test article was further evaluated with tumor weight (TW) measured on day of necropsy (Day 17). The PI of TW was calculated using the equation below:
PITW(%)=100×(TW vehicle−TW drug treated)/TW vehicle
The calculations of PITV and PITW were performed using an Excel spreadsheet and reviewed by the Study Director and Study Monitor.
Inter-group comparison was performed in terms of tumor volume, tumor weight and body weight, using a student's t test. P values of less than 0.05 were considered to be statistically significant.

[1] = Day 12, low-dose arms: TA-1 6 mg/kg s.c. daily, Pac 10 + Ele 10 mg/kg co-i.v. Days 1, 7, 13
[2] = Day 15, low-dose arms: TA-1 6 mg/kg s.c. daily, Pac 10 + Ele 10 mg/kg co-i.v. Days 1, 7, 13

“thymosin alpha 1 (SDAAVDTSSEITTKDLKEKKEVVEEAEN; ends and bridges not checked; UniProt P06454 2-29, looked up) [TA-1, 28 amino acid peptide with a molecular weight of 3108; immunomodulator]” was tested. Which Tumor volumes (Day 12, animal M4) did it give?
The Tumor volumes was 0.004 cm^3.

And the “Tumor measurements L” value (Day 12, animal M5)?
The value was 0.1 cm.

And the “Tumor measurements W” value (Day 12, animal M5)?
Its value is 0.1 cm.

And the Tumor volumes (Day 12, animal M5)?
The Tumor volumes was 0.0005 cm^3.

And the “PI (TV), percent inhibition of tumor volume vs vehicle” value [1]?
The value was 96.28%.

And the “Tumor Volume (Mean ± SD)” value [1]?
The value was 0.0039 ± 0.0038 cm^3.

What about the “Tumor measurements L” value (Day 15, animal F1) of the same substance?
Its value is 0.3 cm.

And the “Tumor measurements W” value (Day 15, animal F1)?
Its value is 0.3 cm.

What about the Tumor volumes (Day 15, animal F1) of the same substance?
Its Tumor volumes is 0.0135 cm^3.

And the “Tumor measurements L” value (Day 15, animal F2)?
Its value is 0.3 cm.

What about the “Tumor measurements W” value (Day 15, animal F2) of the same substance?
The value was 0.3 cm.

What about the Tumor volumes (Day 15, animal F2) of the same substance?
The Tumor volumes was 0.0135 cm^3.

And the “Tumor measurements L” value (Day 15, animal F3)?
Its value is 0.5 cm.

And the “Tumor measurements W” value (Day 15, animal F3)?
Its value is 0.5 cm.

And the Tumor volumes (Day 15, animal F3)?
Its Tumor volumes is 0.0625 cm^3.

And the “Tumor measurements L” value (Day 15, animal F4)?
The value was 0.3 cm.

And the “Tumor measurements W” value (Day 15, animal F4)?
Its value is 0.3 cm.

What about the Tumor volumes (Day 15, animal F4) of the same substance?
The Tumor volumes was 0.0135 cm^3.

What about the “Tumor measurements L” value (Day 15, animal F5) of the same substance?
The value was 0.6 cm.

And the “Tumor measurements W” value (Day 15, animal F5)?
The value was 0.6 cm.

And the Tumor volumes (Day 15, animal F5)?
The Tumor volumes was 0.108 cm^3.

And the “Tumor measurements L” value (Day 15, animal M1)?
Its value is 0.5 cm.

And the “Tumor measurements W” value (Day 15, animal M1)?
Its value is 0.5 cm.

What about the Tumor volumes (Day 15, animal M1) of the same substance?
Its Tumor volumes is 0.0625 cm^3.

What about the “Tumor measurements L” value (Day 15, animal M2) of the same substance?
Its value is 0.4 cm.

What about the “Tumor measurements W” value (Day 15, animal M2) of the same substance?
The value was 0.4 cm.

What about the Tumor volumes (Day 15, animal M2) of the same substance?
The Tumor volumes was 0.032 cm^3.

And the “Tumor measurements L” value (Day 15, animal M3)?
Its value is 0.6 cm.

What about the “Tumor measurements W” value (Day 15, animal M3) of the same substance?
Its value is 0.6 cm.

And the Tumor volumes (Day 15, animal M3)?
Its Tumor volumes is 0.108 cm^3.

And the “Tumor measurements L” value (Day 15, animal M4)?
Its value is 0.5 cm.

What about the “Tumor measurements W” value (Day 15, animal M4) of the same substance?
The value was 0.5 cm.

What about the Tumor volumes (Day 15, animal M4) of the same substance?
Its Tumor volumes is 0.0625 cm^3.

And the “Tumor measurements L” value (Day 15, animal M5)?
Its value is 0.5 cm.

And the “Tumor measurements W” value (Day 15, animal M5)?
Its value is 0.5 cm.

What about the Tumor volumes (Day 15, animal M5) of the same substance?
The Tumor volumes was 0.0625 cm^3.

And the “PI (TV), percent inhibition of tumor volume vs vehicle” value [2]?
Its value is 85.60%.

What about the “Tumor Volume (Mean ± SD)” value [2] of the same substance?
Its value is 0.0539 ± 0.0358 cm^3.

What about the “Tumor Weight (Mean ± SD)” value (Day 17 (necropsy), low-dose arms: TA-1 6 mg/kg s.c. daily, Pac 10 + Ele 10 mg/kg co-i.v. Days 1, 7, 13) of the same substance?
The value was 0.88 ± 0.34 g.

What about the Tumor weights (animal F1) of the same substance?
Its Tumor weights is 0.64 g.

And the Tumor weights (animal F2)?
The Tumor weights was 0.5 g.

And the Tumor weights (animal F3)?
The Tumor weights was 1.2 g.

And the Tumor weights (animal F4)?
The Tumor weights was 0.62 g.

And the Tumor weights (animal F5)?
The Tumor weights was 1.45 g.

What about the Tumor weights (animal M1) of the same substance?
Its Tumor weights is 0.69 g.

What about the Tumor weights (animal M2) of the same substance?
The Tumor weights was 0.56 g.

And the Tumor weights (animal M3)?
The Tumor weights was 1.36 g.

What about the Tumor weights (animal M4) of the same substance?
The Tumor weights was 0.92 g.

And the Tumor weights (animal M5)?
The Tumor weights was 0.89 g.

And the “PI (TW), percent inhibition of tumor weight vs vehicle” value (low-dose arms: TA-1 6 mg/kg s.c. daily, Pac 10 + Ele 10 mg/kg co-i.v. Days 1, 7, 13)?
The value was 55.67%.

What about the “PI (TW), percent inhibition of tumor weight vs vehicle” value (low-dose arms: TA-1 6 mg/kg s.c. daily, Pac 10 + Ele 10 mg/kg co-i.v. Days 1, 7, 13, listed as Group 2) of the same substance?
Its value is 55.67%.

And the “mean tumor volume reduced in comparison to that of the vehicle control group” value (throughout the course of the study, TA-1 6 mg/kg s.c. daily)?
Its value is “more than 50%”.
